Assay results published in US10004809B2, “Precise delivery of therapeutic agents to cell mitochondria for anti-cancer therapy” (UNIVERSITY OF GEORGIA RESEARCH FOUNDATION, INC., priority 2013, dated 2018).

How the values were obtained:
[1] = system: PC3 cells; assay: Annexin V/PI apoptosis detection by flow cytometry; format: cell-based, Human; details: 50 μM
Description: In order to determine whether the enhanced activity of MITO-DCA upon targeting this compound to the mitochondria of cells was due to apoptosis rather than necrosis, an ALEXA FLUOR™ 488-Annexin-V and propidium iodide (PI) cell staining in PC3 and MSC cells was carried out and data were analyzed using flow cytometry (FIG. 4B). As controls, etoposide treated cells were used as early apoptosis population and H2O2 treated cells were marked as late apoptotic or necrotic population. […] There were no late apoptotic or necrotic cells observed with these compounds.
PC3 and MSC cells were seeded at a density of 1×10^6 cells/mL on each well of a six well plate and allowed to grow overnight. Cells were treated with 50 μM Na-DCA, 150 μM TPP-DCA, and 150 μM MITO-DCA for 12 h at 37° C. As positive controls, etoposide (100 μM, incubation time: 12 h) for apoptosis and H2O2 (1 mM, incubation time: 45 min) for necrosis were used. The cells were trypsinized, repeatedly washed, and centrifuged at 1,800 RPM for 3 min, and the supernatants were discarded. Cell density was determined and cells were resuspended in 1× annexin-binding buffer to ˜1×10^6 cells/mL preparing a sufficient volume to have 100 µL per assay. To 100 μL of cell suspension, 5 μL ALEXA FLUOR™ 488 annexin V and 1 µL 100 μg/mL PI working solution were added and incubated for 15 min at room temperature. After the incubation period, 400 μL 1× annexin-binding buffer was added to each sample, samples were gently mixed keeping the samples on ice and the samples were analyzed on the flow cytometer immediately.

[2] = system: PC3 cells; assay: Cytokine production by treated PC3 cells (ELISA); format: cell-based, Human; details: 50 μM, 24 h
From the text: Cancer cells recruit several pathways to evade elimination by the immune system (Kim et al., Immunology 121:1-14, 2007). Several mechanisms by which tumor cells escape immunity include upregulation of inhibitory molecules, production of immunosuppressive cytokines, and downregulation of costimulatory molecules (Rabinovich et al., Annu. Rev. Immunol. 25:267-296, 2007). Dendritic cells (DCs), the major players for the initiation of a specific anti-tumor T-cell response, are potential target to tumor-mediated immunosuppression. (Gabrilovich et al., Nat. Med. 2:1096-1103, 1996; Radmayr et al., Int. J. Cancer 63:627-632, 1995; Orsini et al., Cancer Res. 63:4497-4506, 2003.) Lactic acid secretion in highly proliferative glycolytic tumor has the ability to induce alteration in antigen phenotype and functional activity of DCs, which contributes to the suppression of local immunity (Gottfried et al. 2006). Tumor derived lactic acid inhibit the differentiation of monocytes to DCs, impair DC activation and antigen expression and suppress the proliferation, cytokine production and cytotoxic activity of T cells (Fischer et al., Blood 109:3812-3819, 2007). After observing significant and very selective reduction in lactate levels in PCa cells by MITO-DCA, the impact of the reduced lactate producing PC3 cell supernatants on DCs was investigated. […]

[3] = Solubility study; format: physicochemical
Description: Solubility of MITO-DCA in water was checked by preparing different concentration of MITO-DCA ranging from 2 μM to 5 mM in DMSO (0.1-2.5%)-phosphate buffered saline (PBS). At all concentrations, MITO-DCA was transparent.

SMILES: O=C(CCCCC[P+](c1ccccc1)(c1ccccc1)c1ccccc1)NC(COC(=O)C(Cl)Cl)(COC(=O)C(Cl)Cl)COC(=O)C(Cl)Cl.[Br-] [MITO-DCA]
- Apoptosis (annexin V/PI) [1]: complete early apoptosis
- Levels of IL-6, IL-10 and TNF-α from PC3 cells, compared with TPP-DCA or Na-DCA [2]: higher
- Solubility in water (appearance of solution) ([3]; 2 μM to 5 mM in DMSO (0.1-2.5%)-phosphate buffered saline (PBS)): transparent
- Solubility in an organic solvent ([3]; compared with DCA): far higher than that of DCA
